Test results as given in the Deep4Chem optical property database.

Experiment: solvent given as SMILES

C[Si]1(C)c2ccc(-c3ccc(-c4cccs4)s3)cc2C=Cc2cc(-c3ccc(-c4cccs4)s3)ccc21
absorption maximum (in ClCCl): 398 nm

NCCCCCCCCCCCCN1C(=O)c2ccc3c4ccc5c6c(ccc(c7ccc(c2c37)C1=O)c64)C(=O)N(c1ccc(O)cc1)C5=O
absorption maximum (in CN(C)C=O): 525 nm

C(=C\c1ccncn1)/c1ccc(-c2ccc(N(c3ccccc3)c3ccccc3)cc2)cc1
absorption maximum (in C1CCOC1): 381 nm | absorption maximum (in CC#N): 381 nm | absorption maximum (in CCCCCCC): 373 nm | absorption maximum (in CS(C)=O): 393 nm

C(=C\c1ccc(/C=C/c2cccs2)s1)/c1cccs1
absorption maximum (in CC#N): 423 nm

CC1=N/C(=C\c2ccncc2)C(=O)N1C
absorption maximum (in C1COCCO1): 357 nm | absorption maximum (in CC#N): 356 nm | absorption maximum (in CCO): 351 nm | absorption maximum (in CCOC(C)=O): 353 nm | absorption maximum (in O): 347 nm

CCCCCCc1cc2c3c(c1)c(=C1c4ccccc4Sc4ccccc41)c1cc(CCCCCC)cc4c1N3c1c(cc(CCCCCC)cc1c4=C1c3ccccc3Sc3ccccc31)c2=C1c2ccccc2Sc2ccccc21
absorption maximum (in ClCCl): 430 nm

CCCCn1c2ccccc2c2c1c1c3ccccc3n(CCCC)c1c1c3ccccc3n(CCCC)c21
absorption maximum (in C1CCOC1): 316 nm

N#C/C(=C\c1ccc(Cl)cc1)c1nc(-c2ccccc2)c(-c2ccccc2)s1
absorption maximum (in CC#N): 365 nm

CC1=N/C(=C\c2cc(N(C)C)ccc2C#N)C(=O)N1C
absorption maximum (in C1CCOC1): 363 nm | absorption maximum (in CC#N): 361 nm | absorption maximum (in CCCCCC): 359 nm

CCn1c(-c2ccc(-c3ccc4c(c3)C3(c5ccccc5-c5ccccc53)c3ccccc3-4)cc2)c(-c2ccc3ccccc3c2)c(-c2ccc3ccccc3c2)c1-c1ccc(-c2ccc3c(c2)C2(c4ccccc4-c4ccccc42)c2ccccc2-3)cc1
absorption maximum (in CCOC(C)=O): 326 nm

c1ccc2c(-n3cnc4ccccc43)cccc2c1
absorption maximum (in C1CCCCC1): 283 nm | absorption maximum (in C1CCOC1): 282 nm | absorption maximum (in CC#N): 286 nm | absorption maximum (in CCO): 284 nm | absorption maximum (in CCOC(C)=O): 283 nm | absorption maximum (in CCOCC): 284 nm | absorption maximum (in CO): 284 nm | absorption maximum (in Cc1ccccc1): 282 nm | absorption maximum (in ClC(Cl)Cl): 285 nm

CCOC(=O)c1sc(SC)c2c(=O)[nH]nnc12
absorption maximum (in C1CCOC1): 380.5 nm | absorption maximum (in CC#N): 381 nm | absorption maximum (in CCO): 385 nm | absorption maximum (in CN(C)C=O): 389 nm | absorption maximum (in CO): 384.5 nm | absorption maximum (in CS(C)=O): 387.5 nm

CCC1=C(C)C(=O)n2c1cc1c(C)c(CC)c(C)n1c2=O
absorption maximum (in CC#N): 423 nm | absorption maximum (in CC(C)=O): 422 nm | absorption maximum (in CO): 428 nm | absorption maximum (in CS(C)=O): 428 nm | absorption maximum (in ClC(Cl)Cl): 432 nm | absorption maximum (in c1ccccc1): 428 nm

CC1=CC(C)=[N+]2C1=C(c1ccccc1)c1c(C)cc(/C=C/c3ccccc3)n1[B-]2(F)F
absorption maximum (in CC#N): 560 nm

O=C1/C(=C/C=C/c2cc3c4c(c2)CCCN4CCC3)CC/C1=C\C=C\c1cc2c3c(c1)CCCN3CCC2
absorption maximum (in CC#N): 510 nm | absorption maximum (in CC(C)=O): 515 nm | absorption maximum (in CC(C)O): 535 nm | absorption maximum (in CCCCCC): 457 nm | absorption maximum (in CCCCO): 543 nm | absorption maximum (in CCCO): 541 nm | absorption maximum (in CCO): 538 nm | absorption maximum (in CCOC(C)=O): 495 nm | absorption maximum (in CCOCC): 494 nm | absorption maximum (in CN(C)C=O): 532 nm | absorption maximum (in CO): 523 nm | absorption maximum (in CS(C)=O): 539 nm | absorption maximum (in Cc1ccccc1): 505 nm | absorption maximum (in ClCCl): 529 nm | absorption maximum (in OCC(F)(F)F): 584 nm | absorption maximum (in S=C=S): 530 nm | absorption maximum (in c1ccccc1): 510 nm | absorption maximum (in c1ccncc1): 534 nm

Cc1ccc2[nH]c(-c3ccc(-c4ccc(-c5ccc(-c6nc7cc(C)ccc7[nH]6)cc5)c(C)c4)cc3)nc2c1
absorption maximum (in CN(C)C=O): 333 nm

CCC/N=C/c1cc2ccc(N(C)C)cc2cc1OC
absorption maximum (in C1CCOC1): 369 nm | absorption maximum (in CC#N): 369 nm | absorption maximum (in CC(C)O): 450 nm | absorption maximum (in CCOC(C)=O): 369 nm | absorption maximum (in CN(C)C=O): 374 nm | absorption maximum (in CS(C)=O): 376 nm | absorption maximum (in Cc1ccccc1): 369 nm | absorption maximum (in ClCCl): 368 nm | absorption maximum (in O): 438 nm

CN1/C(=C/C=C(/C=C/c2sc3ccccc3[n+]2C)c2cccc(C(F)(F)F)c2)Sc2ccccc21
absorption maximum (in CCO): 645 nm | absorption maximum (in CO): 642 nm | absorption maximum (in CS(C)=O): 653 nm | absorption maximum (in O): 639 nm

c1ccc(-c2nc3ccccc3nc2-c2cc(-c3nc4ccccc4nc3-c3ccccc3)cc(-n3c4ccccc4c4ccccc43)c2)cc1
absorption maximum (in Cc1ccccc1): 340 nm

N#Cc1c(-n2c3ccccc3c3cc(Br)ccc32)c(-n2c3ccccc3c3cc(Br)ccc32)c(C#N)c(-n2c3ccccc3c3cc(Br)ccc32)c1-n1c2ccccc2c2cc(Br)ccc21
absorption maximum (in Cc1ccccc1): 337 nm

CCCCCCC1(CCCCCC)c2cc(-c3ccc(-c4ccc(-c5ccc(-c6ccc7c(c6)C(CCCCCC)(CCCCCC)c6cc(-n8c9ccccc9c9ccccc98)ccc6-7)s5)c5nsnc45)s3)ccc2-c2ccc(-n3c4ccccc4c4ccccc43)cc21
absorption maximum (in ClCCl): 513 nm

O=C1OC(c2ccccc2)=N/C1=C\c1ccc(N(c2ccc(/C=C3\N=C(c4ccccc4)OC3=O)cc2)c2ccc(/C=C3/N=C(c4ccccc4)OC3=O)cc2)cc1
absorption maximum (in C1CCCCC1): 497.5 nm | absorption maximum (in C1CCOC1): 500 nm | absorption maximum (in C1COCCO1): 502 nm | absorption maximum (in CC1CCCCC1): 498.5 nm | absorption maximum (in CC#N): 498 nm | absorption maximum (in CC(C)=O): 499 nm | absorption maximum (in CC(C)CC(C)(C)C): 492 nm | absorption maximum (in CCCCC): 489 nm | absorption maximum (in CCCCCC): 491 nm | absorption maximum (in CCCCCCC): 495 nm | absorption maximum (in CCCCOCCCC): 497.5 nm | absorption maximum (in CCOC(C)=O): 496 nm | absorption maximum (in CCOCC): 496.5 nm | absorption maximum (in CN(C)C=O): 504 nm | absorption maximum (in CS(C)=O): 506 nm | absorption maximum (in Cc1ccccc1): 505.5 nm | absorption maximum (in ClC(Cl)Cl): 509.5 nm

F[B-]1(F)Oc2ccccc2-c2n(-c3ccc(C(F)(F)F)cc3)c(-c3ccccc3)c(-c3ccccc3)[n+]21
absorption maximum (in C1CCOC1): 327 nm

CN(C)c1ccc(C2=Cc3ccc4ccccc4[n+]3[B-](F)(F)O2)cc1
absorption maximum (in C1CCOC1): 472 nm | absorption maximum (in C1COCCO1): 472 nm | absorption maximum (in CC1CCCCC1): 473 nm | absorption maximum (in CC#N): 468 nm | absorption maximum (in CCOC(C)=O): 468 nm | absorption maximum (in CCOCC): 467 nm | absorption maximum (in CN(C)C=O): 474 nm | absorption maximum (in CO): 468 nm | absorption maximum (in COC(C)=O): 468 nm | absorption maximum (in ClC(Cl)Cl): 477 nm

Cc1ccc(C)n1-c1ccc(N(C)C)cc1
absorption maximum (in CC#N): 306 nm | absorption maximum (in CCCCCC): 304 nm

CCOC(=O)c1c(-c2cc3ccc(OC)cc3oc2=O)nn(-c2ccccc2)c1C(=O)OCC
absorption maximum (in ClCCl): 337 nm

C1=C(c2ccccc2)C=C(c2ccccc2)/C1=C/c1ccc2ccc3cccc4ccc1c2c34
absorption maximum (in C1CCOC1): 422 nm

CCCCCCCCCCOc1cc(OCCCCCCCCCC)cc(C2=C3C(C)=CC(/C=C/c4ccc(OC)cc4)=[N+]3[B-](F)(F)n3c(/C=C/c4ccc(OC)cc4)cc(C)c32)c1
absorption maximum (in ClC(Cl)Cl): 645 nm

COc1cc2c(cc1F)c(=O)c1cc(F)c(OC)cc1n2-c1ccccc1
absorption maximum (in CCO): 378 nm

CCOC(=O)C1=CN(c2ccccc2)C=CC1c1ccccc1 (stereo not given)
absorption maximum (in C1CCOC1): 344 nm | absorption maximum (in CO): 348 nm

O=C1c2ccccc2NC(c2ccccc2)N1Cc1ccccc1 (stereo not given)
absorption maximum (in CC#N): 337 nm | absorption maximum (in CCCCCCCCCCCCCCCC): 325 nm | absorption maximum (in CO): 345 nm | absorption maximum (in ClC(Cl)Cl): 336 nm | absorption maximum (in c1ccccc1): 334 nm

c1ccc(C2(c3ccccc3)c3ccccc3N(c3ccc(-c4nc([C@]56CC7CC(C[C@@H](C7)C5)C6)nc([C@]56C[C@H]7C[C@@H](C[C@H](C7)C5)C6)n4)cc3)c3ccccc32)cc1
absorption maximum (in Cc1ccccc1): 367.02 nm

CCCCN(CCCC)c1ccc(C#Cc2cc(C#Cc3ccc([N+](=O)[O-])cc3)c(C#Cc3ccc([N+](=O)[O-])cc3)cc2C#Cc2ccc(N(CCCC)CCCC)cc2)cc1
absorption maximum (in ClCCl): 417 nm

O=C(O)c1ccc(-c2nc(-c3ccccc3)c(-c3ccccc3)[nH]2)cc1
absorption maximum (in CO): 312 nm

CCN(CC)c1ccc(-n2c(C)ccc2C)cc1
absorption maximum (in CC#N): 304 nm | absorption maximum (in CCCCCC): 310 nm

COC(=O)c1cc(=O)n(C)c2cc(-c3ccc(OC)cc3)sc12
absorption maximum (in C1CCOC1): 402 nm | absorption maximum (in CC#N): 396 nm | absorption maximum (in CN(C)C=O): 402 nm | absorption maximum (in CO): 396 nm | absorption maximum (in CS(C)=O): 404 nm | absorption maximum (in Cc1ccccc1): 402 nm

C[Si](C)(C)c1ccc(-c2nc3ccccc3n2-c2ccccc2)cc1
absorption maximum (in ClCCl): 301 nm

F[B-]1(F)n2c(Nc3cccc4cccnc34)ccc2C(c2ccccc2)=C2C=CC(Cl)=[N+]21
absorption maximum (in C1CCCCC1): 560 nm | absorption maximum (in CC#N): 547 nm | absorption maximum (in Cc1ccccc1): 561 nm | absorption maximum (in ClC(Cl)Cl): 555 nm

c1ccc(-n2c3ccccc3c3cc(-c4cccc(-n5c6ccccc6c6ncccc65)c4)ccc32)cc1
absorption maximum (in ClCCl): 345 nm

COc1ccc(C2=C3C(/C=C/c4cc(OC)c(OC)c(OC)c4)=C(C=O)C(C)=[N+]3[B-](F)(F)n3c(/C=C/c4cc(OC)c(OC)c(OC)c4)c(C=O)c(C=Cc4cc(OC)c(OC)c(OC)c4)c32)cc1
absorption maximum (in ClCCl): 634 nm

CC(C)c1ccc(-c2nc(-c3ccccc3)c3ccccn23)cc1
absorption maximum (in CC#N): 380 nm

CC(C)(C)c1ccc2c(c1)c1cc(C(C)(C)C)ccc1n2-c1ccc(C#Cc2ccc3c4ccc(C#Cc5ccc(C=O)cc5)cc4n(-c4ccc(C(F)(F)F)cc4)c3c2)cc1
absorption maximum (in ClCCl): 377 nm

CCc1c(C)c2n(c1C)[B-](F)(F)[N+]1=C(c3ccc[nH]3)c3ccccc3C1=C2
absorption maximum (in C1CCOC1): 613 nm | absorption maximum (in CC#N): 608 nm | absorption maximum (in CCCCCC): 614 nm | absorption maximum (in CO): 609 nm | absorption maximum (in Cc1ccccc1): 620 nm | absorption maximum (in ClCCl): 616 nm

CC1=C(c2ccccc2)Oc2cc3nc4ccccc4nc3c3cccc1c23
absorption maximum (in ClCCl): 495 nm

CCCCCCCCc1ccc(-c2c3cc(-c4cc(CCCCCCCC)c(-c5ccc(-c6sc(/C=C7\SC(=S)N(CC)C7=O)cc6CCCCCCCC)s5)s4)sc3c(-c3ccc(CCCCCCCC)s3)c3cc(-c4cc(CCCCCCCC)c(-c5ccc(-c6sc(/C=C7\SC(=S)N(CC)C7=O)cc6CCCCCCCC)s5)s4)sc23)s1
absorption maximum (in ClC(Cl)Cl): 509 nm
